As a reminder, the melting point is the temperature of the solid-liquid transition. What is called maximal fold induction is the signal under treatment as a multiple of the control signal.

The values below come from patent US8895599B2, “Lipoprotein lipase-activating compositions comprising benzene derivates” (Otsuka Pharmaceutical Factory, Inc., priority 2008, dated 2014).

One data set relates to human LPL mRNA. Briefly: Test for increase in LPL mRNA expression (luciferase assay, HTB-92/p387/p383 cell line). The class given is cell-based. To be noted: 120 h, HTB-92/p387/p383 cells, 5 days; for maximal fold induction: Max. Ind. Value=Lt/Lc, maximum luciferase activity over control; for EC50: concentration that increases LPL mRNA expression over the control by 50%. The text has this: Pharmacological Test 1 Test for Increase in LPL mRNA Expression
A luciferase assay was employed to simply and quickly detect an increase in human LPL mRNA. The principle of the assay is as follows:
Luciferase emits light when reacted with luciferine (substrate). The expression of LPL mRNA is controlled by 5′-UTR and 3′-UTR (promoter regions) of the LPL gene. By introducing the promoter regions of the LPL gene into a commercially available plasmid (for example, that produced by Clonetics Corp.) to produce a plasmid (reporter plasmid) that stably expresses luciferase in human cells, such a plasmid expresses luciferase only under conditions in which LPL mRNA can increase. Therefore, when the substrate is introduced to the expression system and the amount of luciferase expression (luciferase activity) is quantified as the extent of chemiluminescence, the amount of LPL mRNA expression can be estimated.
The test herein was performed as follows: Using a plasmid for the luciferase assay manufactured by Clontech, wherein human LPL 5′-UTR (Enerback, S., et al., Mol. Cell. Biol. 12 (10) (1992): 4622-4633) and 3′-UTR (Wion, K. L., et al., Science 235 (1987): 4796, 1638-1641) had been inserted, human-derived liposarcoma cell line SW872 (ATCC Accession No. HTB-92) was transformed to prepare an HTB-92/p387/p383 cell line, which stably expresses luciferase.
This HTB-92/p387/p383 cell line was introduced into a 225 cm^2 culture flask furnished with a culture medium and cultured at 37° C. in the absence of CO2 until reaching confluence. Leibovitz's L-15 culture medium (containing 10% FBS, 1% GlutaMaxII, 10 μg/ml streptomycin, 1 μg/ml puromycin, 250 μg/ml hygromycin B) was used as the culture medium. After reaching confluence, the cells were collected, plated on 384-well plates to have 20000 cells/well, and cultured with 50 μl/well of the culture medium under the same conditions as above (37° C., absence of CO2). After 3 days of culturing, the culture medium was replaced by 50 μl/well phenol-red-free DMEM (containing 10% FBS, 1% GlutaMax, 10 U/ml penicillin, 10 μg/ml streptomycin, 1 μg/ml puromycin, 250 μg/ml hygromycin, 1 μM dexamethasone, 0.5 μM IBMX; differentiation medium), and the cells were cultured for 5 more days at 37° C. in the presence of CO2 to differentiate.
Furthermore, the culture medium was replaced by a 50 μl/well medium containing a compound of the invention (compound prepared in an Example) as a test substance wherein the compound had been conditioned with DMSO to a specific concentration selected from 10^−4 M to 3×10^−10M. The cells were cultured for 5 days at 37° C. in the presence of CO2.
After 5 days of culturing, a luciferase substrate solution (manufactured by Promega Corporation) was introduced to each well in an amount of 30 μl/well. The cells were left to stand 10 minutes at room temperature, and luciferase activities were measured by a luminometer (a microplate scintilltion counter; The Wallac MicroBeta Trilux, manufactured by Perkin Elmer, Inc.).
Cells that had been cultured and differentiated in a differentiation medium prepared by adding 0.1% DMSO to the above-mentioned DMEM medium (differentiation medium) not containing phenol red were used as a control (i.e., cultured and differentiated for 5 days and then stimulated for 5 days). The luciferase activity of these control cells were measured as above. The EC50 value (the concentration of test substance that can increase the amount of LPL mRNA expression over the control by 50%, unit: M) was calculated based on the straight line obtained by plotting the results of the tests performed using the test substances at varying concentrations. The maximum induction (Max. Ind. values) was calculated according to the following equation: Max. Ind. Value=Lt/Lc wherein Lt represents the maximum luciferase activity occurred in response to test substance stimulation; and Lc represents the value indicating the luciferase activity of the control.

The compound `COc1cc(-c2cn3ccccc3n2)ccc1OCc1ccccc1F` [Example 4] yielded a melting point of 115 to 117 °C. Also, in the data set with human LPL mRNA, the maximal fold induction amounted to 1.7 and the EC50 turned out to be 2 µM.

For `COc1cc(-c2cn3ccccc3n2)ccc1OCc1cccc(F)c1` [Example 5], the melting point was in the range of 117 to 118 °C. In addition, in the data set with human LPL mRNA, the maximal fold induction was determined as 1.6 and the EC50 stood at 3.6 µM.

Regarding `COc1cc(-c2cn3cc(C)ccc3n2)ccc1OCc1ccc(Br)cc1F` [Example 83], the melting point was 147 to 148 °C.

`COc1cc(-c2cn3ccsc3n2)ccc1OCc1ccc(Br)cc1F` [Example 84] gave a melting point of 109 to 111 °C.

`COc1cc(-c2cn3cccc(OCc4ccccc4)c3n2)ccc1OCc1ccc(C#N)cc1` [Example 86] yielded a melting point of 169 to 170 °C.

For `COc1cc(-c2cn3cccc(OCc4ccccc4)c3n2)ccc1OCc1ccc(Br)cc1F` [Example 87], the melting point was 108 to 109 °C.

For the compound `COc1cc(-c2cn3cccc(OC)c3n2)ccc1OCc1ccccc1` [Example 88], the melting point lay within 189 to 191 °C.

The compound `COc1cc(-c2cn3cccc(OC)c3n2)ccc1OCc1ccc(Cl)cc1` [Example 89] gave a melting point of 132 to 134 °C.

Compound `COc1cc(-c2cn3cccc(O)c3n2)ccc1OCc1ccc(Cl)cc1` [Example 90] came in with a melting point of 220 to 222 °C.

Turning to `COc1cc(-c2cn3ccccc3n2)ccc1OCc1ccc(Cl)cc1F` [Example 91], the melting point was in the range of 119 to 120 °C.

As to `COc1cc(-c2cn3ccccc3n2)ccc1OCc1ccc(Cl)cc1Cl` [Example 92], the melting point fell in the range of 138 to 139 °C.

`COc1cc(-c2cn3ccccc3n2)ccc1OCc1ccc(F)cc1F` [Example 93] displayed a melting point of 137 to 138 °C.

Take `COc1cc(-c2cn3ccccc3n2)ccc1OCc1cc(F)ccc1F` [Example 94]: the melting point was in the range of 115 to 117 °C.

The compound `COc1cc(-c2cn3cc(Br)ccc3n2)ccc1OCc1ccc(Cl)cc1` [Example 96] displayed a melting point of 178 to 180 °C.

With `COc1cc(-c2cn3cc(Br)ccc3n2)ccc1OCc1ccc(C#N)cc1` [Example 97], the melting point was in the range of 165 to 166 °C.

`COc1cc(-c2cn3cc(Br)cc(C)c3n2)ccc1OCc1ccccc1` [Example 98]: the melting point is 164 to 165 °C.

The compound `COc1cc(-c2cn3cc(Br)cc(C)c3n2)ccc1OCc1ccc(C#N)cc1` [Example 99] returned a melting point of 177 to 178 °C.

`COc1cc(-c2cn3cc(Br)c(C)c(C)c3n2)ccc1OCc1ccccc1` [Example 100]: the melting point lay in the range of 158 to 160 °C.

As for `COc1cc(-c2cn3cc(Br)c(C)c(C)c3n2)ccc1OCc1ccc(C#N)cc1` [Example 101], the melting point was 180 to 181 °C.

In turn, `c1ccc(-c2cc3cc(-c4cn5ccccc5n4)ccc3o2)cc1` [Example 103] displayed a melting point of 239.5 to 241 °C. In the data set with human LPL mRNA, this compound came in with a maximal fold induction of 1.9 and an EC50 of 7.4 µM.

The compound `COc1cc(-c2cn3ccccc3n2)ccc1OCc1c(F)cccc1F` [Example 104] yielded a melting point of 136 to 137 °C.

In turn, `COc1cc(-c2cnc3ccccn23)ccc1OCc1ccc(C#N)cc1` [Example 108] gave a melting point of 148 to 149 °C.

On to `COc1cc(-c2cnc3ccccn23)ccc1OCc1ccc(Cl)cc1` [Example 109], for which, in the data set on human LPL mRNA, the maximal fold induction was 1.5 and the EC50 was determined as 3 µM.

For `COc1cc(-c2cn3ccccc3n2)ccc1Oc1ccc(Cl)cc1` [Example 114], the melting point was 148 to 149 °C. Further, in the data set on human LPL mRNA, the maximal fold induction came to 1.5 and the EC50 was found to be 7.2 µM.

In the case of `COc1cc(-c2nc3ccccn3c2Cl)ccc1Oc1ccccc1` [Example 115], the melting point is 108 to 109 °C.

In turn, `COc1cc(-c2cccc3nccn23)ccc1OCc1ccccc1` [Example 116] gave a melting point of 164 to 166 °C.

In the case of `COc1cc(-c2cnc3ccccn23)ccc1OCc1ccc(Cl)c(Cl)c1` [Example 117], in the data set with human LPL mRNA, the maximal fold induction was 2.2 and the EC50 amounted to 3.3 µM.

Compound `COc1cc(-c2cccc3nccn23)ccc1OCc1ccc(C#N)cc1` [Example 120] returned a melting point of 155 to 157 °C.

`COc1cc(-c2cnc3ccccn23)ccc1OCc1ccc(C(F)(F)F)cc1` [Example 122] came in with a melting point of 133 to 135 °C.

In the case of `COc1cc(-c2cnc3ccccn23)ccc1O[C@H](C)c1ccccc1` [Example 132], in the data set with human LPL mRNA, the maximal fold induction turned out to be 1.7 and the EC50 was determined as 6.2 µM.

With `COc1cc(-c2cnc3ccccn23)ccc1OCc1ccc(F)cc1` [Example 133], the melting point was 118 to 119 °C.

For `COc1cc(-c2cn3ccccc3n2)ccc1O[C@@H](C)c1ccccc1` [Example 134], the melting point fell in the range of 149 to 150 °C. In the data set on human LPL mRNA, this compound displayed a maximal fold induction of 1.7 and an EC50 of 6.4 µM.

Regarding `COc1cc(-c2cnc3ccccn23)ccc1OC(C)c1ccccc1` (centres unmarked) [Example 135], the melting point lay in the range of 113 to 113.5 °C. Besides, in the data set on human LPL mRNA, the maximal fold induction was 1.8 and the EC50 was 5.2 µM.

The compound `COc1cc(-c2cccc3nccn23)ccc1O` [Example 137] yielded a melting point of 177 to 178 °C.

Turning to `COc1cc(-c2cn3ccccc3n2)ccc1Oc1ccccc1` [Example 138], the melting point lay within 95 to 97 °C. Besides, in the data set with human LPL mRNA, the maximal fold induction came to 2 and the EC50 turned out to be 2 µM.

In the data set with human LPL mRNA, `CCO[PH](=O)OCc1ccc(C(=O)Nc2ccc(Br)cc2C#N)cc1` (centres unmarked) [ethyl 4-[(4-bromo-2-cyanophenyl)carbamoyl]benzyl phosphonate, reference compound] registered a maximal fold induction of around 1.2.
